Two compounds from EP0604354B1, “Antidepressant and antiparkinsonian compounds” (N[…]/S, priority 1992, dated 1994) can be followed below.

Data set [1] relates to rearing and locomotor activities. Briefly: behavioural excitatory locomotor and rearing responses (gross behaviour rating). It counts as in vivo. The conditions noted are these: rat, 50 mg/kg i.p., maximum peak effect, observed 5-6 hrs.
Protocol: Male SPF wistar rats weighing 200-250g were used for the gross behavioural studies. All rats were transferred the day before the experiments to individual cages made of wire netting (floor area 21 x 27 cm, height 16 cm) at a room temperature of 21-23° C. […] The behavioural elements here classified as rearing (i.e. standing up on the hindlegs) and locomotor activities (i.e. forward running activities) were registered, and the maximum peak effects were classified according to the following rating scale: • 0 = non-existent or very infrequent • + = weak and infrequent • ++ = moderate in intensity and frequency • +++ = very strong, continuous and intense
The degree of locomotor activity was also tested and measured quantitatively in photocell activity cages. For the measurement of this locomotor activity 100 g female rats are used.
The test system of data set [2] is abnormal stereotyped behaviour. The experiment in a line: abnormal stereotyped behaviour (high intensity stereotypy rating). It is filed as in vivo. As to conditions: rat, 50 mg/kg i.p. The source says: Backward locomotion may occasionally be observed.
In data set [3] the target is T1, reuptake of dopamine in synaptosomes of rat forebrain (Rattus norvegicus, UniProt P23977).
T1 construct: Fresh whole forebrain (at 0-4°C) from male Wistar rats (150-200 g) is homogenized; from tissue; host or cells: male Wistar rat whole forebrain, crude synaptosomal supernatant
Briefly: inhibition of reuptake of 3H-dopamine in synaptosomes of rat forebrain. It counts as biochemical.
Protocol: Fresh whole forebrain (at 0-4°C) from male Wistar rats (150-200 g) is homogenized in a glass homogenizer with a teflon pestle in 20 x volumes 0.32M sucrose. The homogenate is centrifuged at 1000 x g (∼ 2900 rpm) for 10 min. The pellet is discarded and the supernatant is used for uptake assays.
A Krebs Buffer (119 mM NaCI, 24 mM NaHCO3, 2.1 mM KCI, 1.2 mM KH2PO4, 1.8 mM CaCl2, 2 mM MgSO4, 7H2O, 12 mM glucose) is equilibrated with an atmosphere of 96% O2: 4% CO2 for at least 60 min at 37°C. To 5 ml Krebs-buffer 100 µl of the radioactivity is added (3H-dopamine 1 x 10^-9M final concentration) and 100 µl test substance solution and 200 µl of tissue suspension. The samples are thoroughly mixed and incubated 10 min at 37°C followed by 2 min at 0°C. After incubation the samples are poured directly onto Whatman GF/C glass fibre filters under suction and immediately washed with 2 x 5 ml ice-cold 0.9% saline (NaCI) buffer. To the filter is added 3 ml of scintillation fluid, and the amount of radioactivity on the filters is determined by conventional liquid scintillation counting.

For data set [4], the system named is haloperidol-induced catalepsy. The experiment in a line: catalepsy test for antiparkinsonian effects (antagonism of haloperidol-induced catalepsy). It is filed as in vivo. The conditions noted are these: rat, given perorally 1 h before haloperidol 0.25 mg/kg s.c.; read-out: Minimum effective dose (peroral administration).
Description: The day before testing, the rats weighing 200-250 g are housed 2 and 2 together in standard macrolon cages. […] The testing for the immobile catalepsy syndrome includes 4 tests performed in the following consecutive order: • 1) a vertical wire netting (40x40 cm high).The meshes (openings) of the nettings are approximately 1x2cm. • 2) a horizontal bar 9 cm above the floor • 3) a 9 cm high block (bar) • 4) a 3 cm high block (cork)
The rats were scored for the immobile cataleptic syndrome every 15 min in all 4 tests starting 15 min after the haloperidol injection. The intensity of catalepsy was tested during 10 sec in all tests and evaluated according to a criteria of 10 sec of total immobility for a score of 2.
The rat was placed in the middle of the vertical wire netting, then on the horizontal bar in an extended position with support by both the forelegs on the bar. The rats were then tested, whether or not they were willing to sit with the left or right forelegs placed first on the 9 and then on the 3 cm block for a duration of 10 sec. The maximum score for all 4 tests is thus a total of 8.
Data set [5] concerns dopamine release. Briefly: dopamine releasing properties (no method given).

T1 sequence (P23977 whole entry): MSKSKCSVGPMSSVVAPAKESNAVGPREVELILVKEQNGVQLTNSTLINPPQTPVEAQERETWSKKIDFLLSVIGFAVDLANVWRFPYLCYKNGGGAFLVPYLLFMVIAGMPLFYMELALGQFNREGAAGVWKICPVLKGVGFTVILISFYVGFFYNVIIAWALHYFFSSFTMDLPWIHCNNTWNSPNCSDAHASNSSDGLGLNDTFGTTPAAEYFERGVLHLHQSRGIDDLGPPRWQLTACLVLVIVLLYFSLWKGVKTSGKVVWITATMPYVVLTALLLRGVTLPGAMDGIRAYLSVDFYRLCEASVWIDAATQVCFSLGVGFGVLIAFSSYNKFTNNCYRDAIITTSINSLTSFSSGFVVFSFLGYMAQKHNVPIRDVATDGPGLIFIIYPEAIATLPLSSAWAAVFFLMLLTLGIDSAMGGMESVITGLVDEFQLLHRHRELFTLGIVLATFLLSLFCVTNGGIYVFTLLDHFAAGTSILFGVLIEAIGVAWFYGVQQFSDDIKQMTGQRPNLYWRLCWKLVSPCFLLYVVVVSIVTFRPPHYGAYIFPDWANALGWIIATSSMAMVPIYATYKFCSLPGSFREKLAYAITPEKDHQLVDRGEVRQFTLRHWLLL

Turning to `CN1[C@H]2CC[C@@H]1[C@H](COc1ccc(Cl)cc1)[C@@H](c1ccc(F)cc1)C2.Cl` [(1R,2R,3S)-2-(4-Chlorophenoxy-methyl)-3-(4-fluorophenyl)tropane, hydrochloride], the “Activity (excitatory locomotor and rearing responses)” value in data set [1] is reported as 0. Further, the “Activity (abnormal stereotyped behaviour, high intensity stereotypy)” value in data set [2] is recorded as 0. Also, 390 nM corresponded to half-maximal inhibition in data set [3] (IC50). The minimal effective dose in data set [4] is below 1 mg/kg.

As for `COC(=O)[C@@H]1[C@@H](c2ccc(F)cc2)C[C@@H]2CC[C@H]1N2C` [trans isomer of Win 35,428], the dopamine releasing properties result in data set [5] is on record as “essentially free of dopamine releasing properties”.
